Test results reported in ChEMBL document CHEMBL1909294, “Translating clinical findings into knowledge in drug safety evaluation--drug induced liver injury prediction system (DILIps)” (PLoS Comput Biol, 2011).

Assays:
Hepatotoxicity [1] = test system: Hepatotoxicity;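 as to HepSE Combined Scores: combined hepatic side effect score as listed in the training data of the Drug Induced Liver Injury Prediction System (DILIps)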;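 as to HepSE cholelithiasis: hepatic side effect score for cholelithiasis, drawn from the DILIps training data for predicting drug-induced liver injury; call rule not given here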;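 as to HepSE elevated liver function tests: hepatic side effect score for raised liver function tests, as recorded in the DILIps training set used for predicting drug-induced liver injury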;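 as to HepSE hepatic necrosis: score of hepatic side effects for hepatic necrosis, drawn from the training data of DILIps, a prediction system for drug-induced liver injury; call rule not given here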;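 as to HepSE hepatomegaly: hepatic side effect score for hepatomegaly, taken from the training set of the DILIps drug-induced liver injury prediction system; call rule not given here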;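 as to HepSE jaundice: Jaundice-related hepatic side-effect score drawn from the training data of the DILIps (drug-induced liver injury prediction system); call rule not given here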; as to HepSE liver disease: call rule not given here
Hepatotoxicity [2] = test system: Hepatotoxicity; remark: listed apart in the source;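 as to HepSE Combined Scores: combined hepatic side effect score as listed in the training data of the Drug Induced Liver Injury Prediction System (DILIps)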;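 as to HepSE cholelithiasis: hepatic side effect score for cholelithiasis, drawn from the DILIps training data for predicting drug-induced liver injury; call rule not given here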;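 as to HepSE hepatic necrosis: score of hepatic side effects for hepatic necrosis, drawn from the training data of DILIps, a prediction system for drug-induced liver injury; call rule not given here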;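 as to HepSE hepatomegaly: hepatic side effect score for hepatomegaly, taken from the training set of the DILIps drug-induced liver injury prediction system; call rule not given here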;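 as to HepSE jaundice: Jaundice-related hepatic side-effect score drawn from the training data of the DILIps (drug-induced liver injury prediction system); call rule not given here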; as to HepSE liver disease: call rule not given here
Hepatotoxicity [3] = test system: Hepatotoxicity; remark: listed apart in the source;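 as to HepSE Combined Scores: combined hepatic side effect score as listed in the training data of the Drug Induced Liver Injury Prediction System (DILIps)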;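 as to HepSE cholelithiasis: hepatic side effect score for cholelithiasis, drawn from the DILIps training data for predicting drug-induced liver injury; call rule not given here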;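 as to HepSE hepatic necrosis: score of hepatic side effects for hepatic necrosis, drawn from the training data of DILIps, a prediction system for drug-induced liver injury; call rule not given here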;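 as to HepSE hepatomegaly: hepatic side effect score for hepatomegaly, taken from the training set of the DILIps drug-induced liver injury prediction system; call rule not given here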;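 as to HepSE jaundice: Jaundice-related hepatic side-effect score drawn from the training data of the DILIps (drug-induced liver injury prediction system); call rule not given here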; as to HepSE liver disease: call rule not given here
Hepatotoxicity [4] = test system: Hepatotoxicity; remark: listed apart in the source;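 as to HepSE Combined Scores: combined hepatic side effect score as listed in the training data of the Drug Induced Liver Injury Prediction System (DILIps)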;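 as to HepSE cholelithiasis: hepatic side effect score for cholelithiasis, drawn from the DILIps training data for predicting drug-induced liver injury; call rule not given here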;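 as to HepSE hepatic necrosis: score of hepatic side effects for hepatic necrosis, drawn from the training data of DILIps, a prediction system for drug-induced liver injury; call rule not given here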;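 as to HepSE hepatomegaly: hepatic side effect score for hepatomegaly, taken from the training set of the DILIps drug-induced liver injury prediction system; call rule not given here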;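 as to HepSE jaundice: Jaundice-related hepatic side-effect score drawn from the training data of the DILIps (drug-induced liver injury prediction system); call rule not given here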; as to HepSE liver disease: call rule not given here
Hepatotoxicity [5] = test system: Hepatotoxicity; remark: listed apart in the source; as to HepSE liver disease: call rule not given here
Hepatotoxicity [6] = test system: Hepatotoxicity; remark: listed apart in the source; as to HepSE liver disease: call rule not given here
Hepatotoxicity [7] = test system: Hepatotoxicity; remark: listed apart in the source
Hepatotoxicity [8] = test system: Hepatotoxicity; remark: listed apart in the source
Hepatotoxicity [9] = test system: Hepatotoxicity; remark: listed apart in the source
Hepatotoxicity [10] = test system: Hepatotoxicity; remark: listed apart in the source
Hepatotoxicity [11] = test system: Hepatotoxicity; remark: listed apart in the source
Hepatotoxicity [12] = test system: Hepatotoxicity; remark: listed apart in the source
Hepatotoxicity [13] = test system: Hepatotoxicity; remark: listed apart in the source
Hepatotoxicity [14] = test system: Hepatotoxicity; remark: listed apart in the source

Row | Compound | HepSE_hepatomegaly (Hepatotoxicity [1]) | HepSE_Combined Scores (Hepatotoxicity [2]) | HepSE_cholelithiasis (Hepatotoxicity [3]) | HepSE_hepatic necrosis (Hepatotoxicity [4]) | HepSE_jaundice (Hepatotoxicity [5]) | HepSE_liver fatty (Hepatotoxicity [6]) | HepSE_liver disease (Hepatotoxicity [7]) | HepSE_elevated liver function tests (Hepatotoxicity [8]) | HepSE_bilirubinemia (Hepatotoxicity [9]) | HepSE_liver function tests abnormal (Hepatotoxicity [10]) | HepSE_cirrhosis (Hepatotoxicity [11]) | HepSE_hepatic failure (Hepatotoxicity [12]) | HepSE_cholecystitis (Hepatotoxicity [13]) | HepSE_hepatitis (Hepatotoxicity [14])
1 | CCOc1cc(CC(=O)N[C@@H](CC(C)C)c2ccccc2N2CCCCC2)ccc1C(=O)O [REPAGLINIDE] | 0 | 2 | 0 | 0 | 1 | 0 | 0 | 0 | 0 | 0 | 0 | 0 | 0 | 1
2 | O=C1CCc2ccc(OCCCCN3CCN(c4cccc(Cl)c4Cl)CC3)cc2N1 [ARIPIPRAZOLE] | 1 | 6 | 1 | 0 | 1 | 0 | 0 | 0 | 1 | 0 | 0 | 0 | 1 | 1
3 | CC1(C)S[C@@H]2[C@H](NC(=O)C(C(=O)Oc3ccc4c(c3)CCC4)c3ccccc3)C(=O)N2[C@H]1C(=O)[O-].[Na+] (some centres not stated) [CARBENICILLIN INDANYL SODIUM] | 0 | 0 | 0 | 0 | 0 | 0 | 0 | 0 | 0 | 0 | 0 | 0 | 0 | 0
4 | Cc1ccc(-c2nc3ccc(C)cn3c2CC(=O)N(C)C)cc1 [ZOLPIDEM] | 0 | 1 | 0 | 0 | 0 | 0 | 0 | 0 | 1 | 0 | 0 | 0 | 0 | 0
5 | CC(C)[C@H](N)C(=O)OCC(CO)OCn1cnc2c(=O)nc(N)[nH]c21 (some centres not stated) [VALGANCICLOVIR] | 0 | 2 | 0 | 0 | 1 | 0 | 0 | 0 | 0 | 0 | 0 | 0 | 0 | 1
6 | CN(C)CCOC(c1ccc(Cl)cc1)c1ccccn1 (configuration not stated) [CARBINOXAMINE] | 0 | 0 | 0 | 0 | 0 | 0 | 0 | 0 | 0 | 0 | 0 | 0 | 0 | 0
7 | CCOC(=O)c1ncn2c1CN(C)C(=O)c1cc(F)ccc1-2 [FLUMAZENIL] | 0 | 0 | 0 | 0 | 0 | 0 | 0 | 0 | 0 | 0 | 0 | 0 | 0 | 0
8 | PORFIMER SODIUM | 0 | 1 | 0 | 0 | 1 | 0 | 0 | 0 | 0 | 0 | 0 | 0 | 0 | 0
9 | Cc1cn([C@H]2C=C[C@@H](CO)O2)c(=O)[nH]c1=O [STAVUDINE] | 0 | 5 | 0 | 0 | 0 | 1 | 1 | 0 | 1 | 0 | 0 | 1 | 0 | 1
10 | COc1cc(C(=O)NS(=O)(=O)c2ccccc2C)ccc1Cc1cn(C)c2ccc(NC(=O)OC3CCCC3)cc12 [ZAFIRLUKAST] | 0 | 4 | 0 | 0 | 0 | 0 | 0 | 1 | 1 | 0 | 0 | 1 | 0 | 1
11 | CCCC(C)(COC(N)=O)COC(N)=O [MEPROBAMATE] | 0 | 0 | 0 | 0 | 0 | 0 | 0 | 0 | 0 | 0 | 0 | 0 | 0 | 0
12 | CCN(CC)CCCC(C)Nc1ccnc2cc(Cl)ccc12 (configuration not stated) [CHLOROQUINE] | 0 | 0 | 0 | 0 | 0 | 0 | 0 | 0 | 0 | 0 | 0 | 0 | 0 | 0
13 | NC[C@H]1O[C@H](O[C@H]2[C@H](O)[C@@H](O[C@H]3O[C@H](CO)[C@@H](O)[C@H](N)[C@H]3O)[C@H](N)C[C@@H]2N)[C@H](N)C[C@@H]1O [TOBRAMYCIN] | 0 | 0 | 0 | 0 | 0 | 0 | 0 | 0 | 0 | 0 | 0 | 0 | 0 | 0
